Laboratory results from paper PMC5506883 (Heliyon, 2017).

Key:
[1] = tested on: xanthine oxidase; details: ref Sheu and Chiang, 1997; cited from earlier work
[2] = molecular target: Horse butyrylcholinesterase (EC 3.1.1.8) (Equus caballus, UniProt P81908); experiment: Anticholinesterase assay; type: biochemical; details: Butyrylcholinesterase inhibition activity IC50 μM ± SEM, mean of three experiments with SEM; 15 min at 25 °C, pH 8.0
Horse butyrylcholinesterase (EC 3.1.1.8), sequence (P81908 whole entry): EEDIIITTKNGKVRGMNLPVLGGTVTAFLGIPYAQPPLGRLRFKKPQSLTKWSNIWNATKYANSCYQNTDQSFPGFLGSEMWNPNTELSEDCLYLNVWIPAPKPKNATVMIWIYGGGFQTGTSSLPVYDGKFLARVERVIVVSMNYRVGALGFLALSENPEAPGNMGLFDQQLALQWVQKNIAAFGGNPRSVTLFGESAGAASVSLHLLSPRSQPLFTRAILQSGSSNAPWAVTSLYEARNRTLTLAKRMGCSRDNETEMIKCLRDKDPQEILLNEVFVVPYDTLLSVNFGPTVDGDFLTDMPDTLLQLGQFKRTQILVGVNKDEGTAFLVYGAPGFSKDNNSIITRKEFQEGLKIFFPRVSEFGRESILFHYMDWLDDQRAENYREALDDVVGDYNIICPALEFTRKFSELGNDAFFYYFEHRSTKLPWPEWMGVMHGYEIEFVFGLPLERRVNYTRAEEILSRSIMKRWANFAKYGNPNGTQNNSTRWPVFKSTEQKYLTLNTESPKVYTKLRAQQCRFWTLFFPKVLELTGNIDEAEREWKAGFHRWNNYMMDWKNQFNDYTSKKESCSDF

SMILES: Oc1ccc2c(O)c3ccccc3cc2c1O [Compound 1, anthracene-1,2,10-triol]
- xanthine oxidase inhibitory activity at concentration [1]: 68.35 µM
- IC50 [2]: 89.3 ± 0.21 µM
